Test results from patent publication US20120029054A1, “RNA Interference Mediated Inhibition of GATA Binding Protein 3 (GATA3) Gene Expression Using Short Intefering Nucleic Acid (siNA)” (Merck Sharp & Dohme Corp., priority 2009, published 2012).
[invAb] = inverted abasic unit; m = 2'-O-methyl; r = 2'-OH (RNA); f = 2'-fluoro

Tests used:
GATA3 mRNA [1] = assay: GATA3 mRNA knock-down (Taqman qRT-PCR) after RNAiMax transfection of human MCF7 cells; screen and IC50 dose response; type: cell-based; conditions: 10 nM siNA, MCF7 cells, 24 hrs, average of 3 experiments
Procedure: MCF7 (human; ATCC cat# HTB-22): Cells were cultured at 37° C. in the presence of 5% CO2 and grown in Eagle's Minimum Essential medium with supplemented with fetal bovine serum at a final concentration of 10% and 100 μg/mL of streptomycin and 100 U/mL penicillin.
(§1) Cells were plated in all wells of a tissue-culture treated, 96-well plate at a final count of 5000 cells/well in 100 μL of the appropriate culture media. The cells were cultured for 24 hours after plating at 37° C. in the presence of 5% CO2.
(§2) After 24 hours, complexes containing siNA and RNAiMax were created as follows: A solution of RNAiMax diluted 33-fold in OPTI-MEM was prepared. In parallel, solutions of the siNAs for testing were prepared to a final concentration of 120 nM in OPTI-MEM. After incubation of RNAiMax/OPTI-MEM solution at room temperature for 5 min, an equal volume of the siNA solution and the RNAiMax solution were added together for each of the siNAs.
(§3) This solution was incubated at room temperature for 20 minutes. After incubation, 20 uL of the solution was added to each of the relevant wells. The final concentration of siNA in each well was 10 nM and the final volume of RNAiMax in each well was 0.3 ul.
(§4) The time of incubation with the RNAiMax-siNA complexes was 24 hours and there was no change in media between transfection and harvesting, unless otherwise indicated.
(§5) RNA was extracted from a 96-well plate using the TaqMan® Gene Expression Cells-to-CT™ Kit (Cat#4399002) with a modified protocol. Briefly, a 60 uL (1 plate) or 110 uL (2 plates) of the Lysis Solution with DNase I was dispensed into each well of the Lysis Buffer Plate (twin.tec full skirt plate). The lysis buffer and stop plates were stored at 4° C. until the cells were washed.
(§6) The plate was spun at 1100 rpm for 5 minutes. The culture medium was aspirated and discarded from the wells of the culture plate. The lysis was performed automatically using a BioMek FX instrument and method. After the Biomek method was completed, the lysis plate was incubated for 2 min. at room temperature. The lysis plate can be stored for 2 hours at 4° C., or at −20° C. or −80° C. for two months.
(§7) Each well of the reverse transcription plate required 10 uL of 2× reverse transcriptase Buffer, 1 uL of 20× reverse transcription enzyme and 2 uL of nuclease-free water. The reverse transcription master mix was prepared by mixing 2× reverse transcription buffer, 20× reverse transcription enzyme mix, and nuclease-free water. 13 uL of the reverse transcription master mix was dispensed into each well of the reverse transcription plate (semi-skirted). A separate reverse transcription plate was prepared for each cell plate. The plate was loaded onto a Biomek NX or Biomek FX Dual-96 and the Biomek method was run. The program is programmed to automatically added 7 uL of lysate from the cell lysis procedure described above into each well of the reverse transcription plate. The plate is sealed and spun on a centrifuge (1000 rpm for 30 seconds) to settle the contents to the bottom of the reverse transcription plate. The plate is placed in a thermocycler at 37° C. for 60 min, 95° C. for 5 min, and 4° C. until the plate is removed from the thermocycler. Upon removal, if not used immediately, the plate was frozen at −20° C.
(§8) A series of probes and primers were used to detect the various mRNA transcripts of the genes of β-Actin (human cell line only), and of GATA3 and GAPDH in mouse and human cell lines. All Taqman probes and primers for the experiments here-in described were supplied as pre-validated sets by Applied Biosystems, Inc. (see Table 2).
(§9) The assays were performed on an ABI 7900 instrument, according to the manufacturer's instructions. A TaqMan Gene Expression Master Mix (provided in the Cells-to-CT™, Applied Biosystems, Cat #4399002) was used. The PCR reactions were carried out at 50° C. for 2 min, 95° C. for 20 min followed by 40 cycles at 95° C. for 15 secs and 60° C. for 1 min. […]

GATA3 mRNA [2] = assay: GATA3 mRNA knock-down (Taqman qRT-PCR) after RNAiMax transfection of mouse RAG cells; type: cell-based; conditions: 10 nM siNA, 24 hrs, average of 2 experiments
Procedure: RAG (murine; ATCC cat# CCL-142): Cells were cultured at 37° C. in the presence of 5% CO2 and grown in Eagle's Minimum Essential medium with supplemented with 10% of fetal bovine serum, 100 μg/mL of streptomycin, and 100 U/mL penicillin.
as §1, §2, §3, §4, §5, §6, §7, §8, §9

## 30245-DC: GATA3 siNA duplex, site 1829: sense B GccAuccAGccuGuccuuu TTB (SEQ 43), antisense AAAGGAcAGGcuGGAuGGcUU (SEQ 44) (sense GCCAUCCAGCCUGUCCUUUTT; antisense AAAGGACAGGCUGGAUGGCUU; chemistry not fully specified)
GATA3 mRNA [1]
  % KD Human: 24 ± 2%
GATA3 mRNA [2]
  % KD Mouse: 20 ± 7%

## 30246-DC: GATA3 siNA duplex, site 1883: sense B GGGuuAGAGcccuGcucGA TTB (SEQ 45), antisense UCGAGcAGGGcucuAAcccUU (SEQ 46) (sense GGGUUAGAGCCCUGCUCGATT; antisense UCGAGCAGGGCUCUAACCCUU; chemistry not fully specified)
GATA3 mRNA [1]
  % KD Human: −6 ± 19%
GATA3 mRNA [2]
  % KD Mouse: −1 ± 2%

## 30247-DC: GATA3 siNA duplex, site 763: sense B GGGccAcGGuGcAGAGGuA TTB (SEQ 47), antisense UACcucuGcAccGuGGcccUU (SEQ 48) (sense GGGCCACGGUGCAGAGGUATT; antisense UACCUCUGCACCGUGGCCCUU; chemistry not fully specified)
GATA3 mRNA [1]
  % KD Human: −7 ± 17%
GATA3 mRNA [2]
  % KD Mouse: −25 ± 14%

## 30248-DC: GATA3 siNA duplex, site 643: sense B cGGGccucAGccAcuccuA TTB (SEQ 49), antisense UAGGAGuGGcuGAGGcccGUU (SEQ 50) (sense CGGGCCUCAGCCACUCCUATT; antisense UAGGAGUGGCUGAGGCCCGUU; chemistry not fully specified)
GATA3 mRNA [1]
  % KD Human: 18 ± 4%
GATA3 mRNA [2]
  % KD Mouse: 1 ± 5%

## 30249-DC: GATA3 siNA duplex, site 673: sense B cGcAGuAcccGcuGccGGA TTB (SEQ 51), antisense UCCGGcAGcGGGuAcuGcGUU (SEQ 52) (sense CGCAGUACCCGCUGCCGGATT; antisense UCCGGCAGCGGGUACUGCGUU; sense: DNA at AGT, 2'-fluoro at CU, [invAb] at 5' end, 3' end, backbone not given here; antisense: sugars from the 5' end rrrmmfmmfmmmfmffmfmmm, backbone not given here)
GATA3 mRNA [1]
  % KD Human: 1 ± 19%
GATA3 mRNA [2]
  % KD Mouse: −12 ± 2%

## 30250-DC: GATA3 siNA duplex, site 727: sense B GcAAccAcGucccGcccuA TTB (SEQ 53), antisense UAGGGcGGGAcGuGGuuGcUU (SEQ 54) (sense GCAACCACGUCCCGCCCUATT; antisense UAGGGCGGGACGUGGUUGCUU; chemistry not fully specified)
GATA3 mRNA [1]
  % KD Human: 6 ± 9%
GATA3 mRNA [2]
  % KD Mouse: −9 ± 8%

## 30251-DC: GATA3 siNA duplex, site 735: sense B GucccGcccuAcuAcGGAA TTB (SEQ 55), antisense UUCcGuAGuAGGGcGGGAcUU (SEQ 56) (sense GUCCCGCCCUACUACGGAATT; antisense UUCCGUAGUAGGGCGGGACUU; sense: DNA at AGT, 2'-fluoro at CU, [invAb] at 5' end, 3' end, backbone not given here; antisense: sugars from the 5' end rrrfmfmmfmmmmfmmmmfmm, backbone not given here)
GATA3 mRNA [1]
  % KD Human: −127 ± 32%
GATA3 mRNA [2]
  % KD Mouse: −30 ± 18%

## 30252-DC: GATA3 siNA duplex, site 1084: sense B cccGGcAGGAcGAGAAAGA TTB (SEQ 57), antisense UCUuucucGuccuGccGGGUU (SEQ 58) (sense CCCGGCAGGACGAGAAAGATT; antisense UCUUUCUCGUCCUGCCGGGUU; sense: DNA at AGT, 2'-fluoro at C, [invAb] at 5' end, 3' end, backbone not given here; antisense: sugars from the 5' end rrrfffffmffffmffmmmmm, backbone not given here)
GATA3 mRNA [1]
  % KD Human: −3 ± 2%
GATA3 mRNA [2]
  % KD Mouse: 0 ± 4%

## 30253-DC: GATA3 siNA duplex, site 644: sense B GGGccucAGccAcuccuAc TTB (SEQ 59), antisense GUAGGAGuGGcuGAGGcccUU (SEQ 60) (sense GGGCCUCAGCCACUCCUACTT; antisense GUAGGAGUGGCUGAGGCCCUU; chemistry not fully specified)
GATA3 mRNA [1]
  % KD Human: −1 ± 11%
GATA3 mRNA [2]
  % KD Mouse: −6 ± 1%

## 30254-DC: GATA3 siNA duplex, site 619: sense B GGcAGcAcccGGAcAcGcA TTB (SEQ 61), antisense UGCGuGuccGGGuGcuGccUU (SEQ 62) (sense GGCAGCACCCGGACACGCATT; antisense UGCGUGUCCGGGUGCUGCCUU; chemistry not fully specified)
GATA3 mRNA [1]
  % KD Human: −27 ± 15%
GATA3 mRNA [2]
  % KD Mouse: 6 ± 5%

## 30255-DC: GATA3 siNA duplex, site 1085: sense B ccGGcAGGAcGAGAAAGAG TTB (SEQ 63), antisense CUCuuucucGuccuGccGGUU (SEQ 64) (sense CCGGCAGGACGAGAAAGAGTT; antisense CUCUUUCUCGUCCUGCCGGUU; sense: DNA at AGT, 2'-fluoro at C, [invAb] at 5' end, 3' end, backbone not given here; antisense: sugars from the 5' end rrrffffffmffffmffmmmm, backbone not given here)
GATA3 mRNA [1]
  % KD Human: 26 ± 11%
GATA3 mRNA [2]
  % KD Mouse: 40 ± 3%

## 30256-DC: GATA3 siNA duplex, site 719: sense B cGGucAAGGcAAccAcGuc TTB (SEQ 65), antisense GACGuGGuuGccuuGAccGUU (SEQ 66) (sense CGGUCAAGGCAACCACGUCTT; antisense GACGUGGUUGCCUUGACCGUU; chemistry not fully specified)
GATA3 mRNA [1]
  % KD Human: −19 ± 5%
GATA3 mRNA [2]
  % KD Mouse: 1 ± 6%

## 30257-DC: GATA3 siNA duplex, site 1830: sense B ccAuccAGccuGuccuuuG TTB (SEQ 67), antisense CAAAGGAcAGGcuGGAuGGUU (SEQ 68) (sense CCAUCCAGCCUGUCCUUUGTT; antisense CAAAGGACAGGCUGGAUGGUU; chemistry not fully specified)
GATA3 mRNA [1]
  % KD Human: −3 ± 3%
GATA3 mRNA [2]
  % KD Mouse: −4 ± 5%

## 30258-DC: GATA3 siNA duplex, site 990: sense B cAcGccAGcccGcAccucu TTB (SEQ 69), antisense AGAGGuGcGGGcuGGcGuGUU (SEQ 70) (sense CACGCCAGCCCGCACCUCUTT; antisense AGAGGUGCGGGCUGGCGUGUU; chemistry not fully specified)
GATA3 mRNA [1]
  % KD Human: 0 ± 4%
GATA3 mRNA [2]
  % KD Mouse: −12 ± 4%

## 30259-DC: GATA3 siNA duplex, site 713: sense B cAucGAcGGucAAGGcAAc TTB (SEQ 71), antisense GUUGccuuGAccGucGAuGUU (SEQ 72) (sense CAUCGACGGUCAAGGCAACTT; antisense GUUGCCUUGACCGUCGAUGUU; chemistry not fully specified)
GATA3 mRNA [1]
  % KD Human: 36 ± 2%
GATA3 mRNA [2]
  % KD Mouse: 60 ± 1%

## 30262-DC: GATA3 siNA duplex, site 1818: sense B ccGAuGcAcccGccAuccA TTB (SEQ 77), antisense UGGAuGGcGGGuGcAucGGUU (SEQ 78) (sense CCGAUGCACCCGCCAUCCATT; antisense UGGAUGGCGGGUGCAUCGGUU; chemistry not fully specified)
GATA3 mRNA [1]
  % KD Human: 10 ± 11%
GATA3 mRNA [2]
  % KD Mouse: 1 ± 7%
